Measurements as given in patent USRE47607E1, “Luciferase signal enhancing compositions” (GENE STREAM PTY LTD, priority 2006, dated 2019).
Entries after “also recorded” stand apart in the source; their conditions may differ.

What was measured:
[1] = system: non-secreted Metridia luciferase; experiment: non-secreted Metridia luciferase activity in HeLa cell lysates; format: biochemical; details: for signal intensity: chelator in lysis buffer without salt, 30 or 120 min lysis, FIGS. 10A, 10B; for light units (% of those obtained using 0.1% NP40): detergent type and concentration varied, 40 or 120 min, FIGS. 14A, 14B; for increase in activity between 30 and 120 min lysis: salt 150 mM in lysis buffer, % of light units at 30 min lysis, FIG. 26
Method: HeLa cells stably expressing either non-secreted and destabilized Gaussia or non-secreted and destabilized Metridia luciferase were plated onto 96-well plates and incubated overnight. Medium was removed and the cells lysed in 20 ul of lysis buffer per well. The lysis buffer comprised; 25 mM Tris pH 8.1; 0.1% NP40; 63.4 uM Na-Oxalate; 5% Glycerol plus the concentration and type of salt indicated in FIG. 4. Replicate samples were assayed for luciferase activity after 30 minutes following addition of the lysis buffer by injecting 60 ul of assay buffer. The assay buffer comprised 25 mM Tris pH 7.75; 2 mM Ascorbate; 24 uM Cz. Results were expressed as a % of the light units obtained in the absence of salt (see FIG. 4).
Luciferase assays were performed as described in Example 5 with either non-secreted and destabilized Gaussia luciferase or non-secreted and destabilized Metridia luciferase. Two experiments are shown as separate graphs, with results shown as relative luminescence in counts per second (CPS) (see FIGS. 5A and 5B). Within each experiment, the lysis buffer and assay buffer differed only in the amount and type of salt added as indicated. Replicate samples were analysed at 120 min after addition of the lysis buffer (LB) by injecting 60 ul of assay buffer (AB).
Luciferase assays were performed with non-secreted and destabilized Metridia luciferase as described in Example 5, except the lysis buffer contained no salt and but contained the indicated type and concentration of chelators. Replicate luciferase assay were carried out after a 30 or 120 min lysis period. Results from the 30 min time point were expressed as a % of the light units obtained in the absence of chelator (see FIG. 10A) and results from the 120 min time point were expressed as % of the light units obtained with the same lysis buffer at 30 min (see FIG. 10B).
HeLa cells expressing destabilised, non-secreted Gaussia or non-secreted Metridia luciferases were plated in equal aliquots onto 96-well plates and incubated overnight. Medium was removed and the cells lysed in 20 ul of lysis buffer. The detergent type and concentration was varied as indicated. Luciferase assays were carried out by injecting 60 ul of assay buffer comprising 25 mM Tris pH 8.1; 1 mM EDTA, 2 mM Ascorbate; 24 uM Cz Two experiments are shown, in the first the lysis buffer also contained 5% glycerol, 64 uM sodium oxalate, 150 mM NaBr, 25 mM Tris pH 8.5, 5 mM EDTA, 0.6 mM reduced glutathione, 0.4 mM oxidised glutathione, 75 mM urea (v6) and luciferase activity was assayed at 40 min. In the second experiment, the lysis buffer also contained 2 5 mM Tris pH 8.1, 63.4 uM Na-oxalate, 150 mM NaBr, 5% Glycerol and the luciferase activity was assayed at 120 min. Results were expressed as the % of the light units obtained using 0.1% NP40 (see FIGS. 14A and 14B). […]
HeLa cells expressing destabilised, non-secreted Metridia luciferase were plated in equal aliquots onto 96-well plates and incubated overnight.

[2] = system: non-secreted Gaussia luciferase; experiment: non-secreted Gaussia luciferase activity in HeLa cell lysates; format: biochemical; details: for signal intensity with detergent in lysis buffer: detergent 0.1% in lysis buffer unless otherwise indicated, FIGS. 13A-C; for light units (% of those obtained using 0.1% NP40): detergent type and concentration varied, 40 or 120 min, FIGS. 14A, 14B; for signal intensity: chelator type and concentration varied, 30 min lysis, FIG. 9; for stability of luciferase activity between 20 and 90 min after onset of cell lysis: salt and EDTA in lysis buffer, % of light units at 20 min lysis, FIG. 7; for light output (% of light units obtained in the absence of salt): salt in lysis buffer, assayed 40 min after lysis buffer, FIG. 3
Method: HeLa cells stably expressing non-secreted and destabilized Gaussia luciferase were plated onto 96-well plates and incubated overnight. Medium was removed and the cells lysed in 30 ul of lysis buffer per well. The lysis buffer (LB) comprised; 25 mM Tris pH 7.8; 0.1% NP40; 1 mM EDTA plus NaBr at concentrations of (from left to right) 0 mM, 150 mM, 0 mM and 75 mM. Luciferase activity was assayed by injecting 30 ul of an assay buffer (AB) comprising 25 mM Tris pH 7.8; 40 uM Cz plus NaBr at concentrations of (from left to right) 0 mM, 0 mM, 150 mM and 75 mM. Thus, the final concentration of NaBr was 75 mM in all samples, except the no salt controls. Results were expressed as relative light units (RLU) (See FIG. 2).
HeLa cells stably expressing non-secreted and destabilized Gaussia luciferase were plated onto 96-well plates and incubated overnight. Medium was removed and the cells lysed in 20 ul of lysis buffer per well. The lysis buffer comprised; 25 mM Tris pH 8.1, 1 mM EDTA; 0.1% NP40; 63.4 uM Na-Oxalate; 5% Glycerol plus the concentration and type of salt indicated in FIG. 3. Luciferase activity was assayed at 40 min after addition of the lysis buffer (by injecting 60 ul of an assay buffer comprising 25 mM Tris pH 8.1; 1 mM EDTA, 2 mM Ascorbate; 26 uM Cz. Results were expressed as a % of the light units obtained in the absence of salt (see FIG. 3). […]
Luciferase assays were performed as described in Example 4. All salts were present at 150 mM in lysis buffer.
Luciferase assays were performed as described in Example 7, except using the indicated concentrations of salt and EDTA in the lysis buffer. Replicate samples were assayed for luciferase activity at 20, 30, 40 and 90 min after addition of lysis buffer. Results were expressed as a % of the light units obtained after 20 min lysis in the same lysis buffer (see FIG. 7).
Luciferase assays were performed as described in Example 8, except using lysis buffer containing 150 mM NaBr and the indicated concentration of EDTA. Two experiments are shown as separate graphs, with results shown as relative light units (RLU) (see FIGS. 8A and 8B). Within each experiment, the same assay buffer was used for all samples and the lysis buffer differed only in the amount of EDTA as indicated. Replicate samples were assayed for activity of non-secreted Gaussia luciferase at 30 or 120 min after addition of lysis buffer.
Luciferase assays were performed as described in Example 9, except using the indicated type and concentration of chelator and a 30 min lysis period.
HeLa cells expressing destabilised, non-secreted Gaussia luciferase were plated in equal aliquots onto 96-well plates and incubated overnight. Three experiments are shown as separate graphs (FIGS. 13A, 13B and 13C). Within each experiment, the same assay buffer was used for all samples and the lysis buffer differed only in the type of detergent used (0.1% in lysis buffer unless otherwise indicated).
HeLa cells expressing destabilised, non-secreted Gaussia or non-secreted Metridia luciferases were plated in equal aliquots onto 96-well plates and incubated overnight. Medium was removed and the cells lysed in 20 ul of lysis buffer. The detergent type and concentration was varied as indicated.

Renilla luciferase = Renilla luciferase (Renilla reniformis, UniProt P27652); details: EDTA in lysis buffer, 30 min; FIG. 12
Renilla luciferase, sequence (P27652 whole entry): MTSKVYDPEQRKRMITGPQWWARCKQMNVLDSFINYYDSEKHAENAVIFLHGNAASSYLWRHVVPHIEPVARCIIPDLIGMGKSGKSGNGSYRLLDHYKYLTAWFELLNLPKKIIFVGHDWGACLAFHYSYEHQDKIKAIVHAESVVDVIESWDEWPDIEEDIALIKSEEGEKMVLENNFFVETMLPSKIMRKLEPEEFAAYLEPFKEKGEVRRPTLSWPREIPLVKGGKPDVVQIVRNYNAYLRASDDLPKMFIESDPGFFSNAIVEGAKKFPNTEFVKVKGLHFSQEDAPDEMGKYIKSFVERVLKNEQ
Method: (§1) HeLa cells expressing Firefly or Renilla luciferases were plated into 96-well plates and incubated overnight. Medium was removed and the cells lysed in 20 ul of lysis buffer containing 25 mM Tris pH 8.1; 0.1% NP40; 63.4 uM Na-Oxalate; 5% Glycerol, 150 mM NaCl plus the concentration of EDTA in FIG. 12. Replicate samples were assayed for luciferase activity at 30 min by injecting 30 ul of Firefly assay buffer II containing Firefly substrate followed by 30 ul of Promega's “Stop and Glo” buffer containing Renilla substrate. Results are expressed as a % of the light units obtained in the absence of EDTA (see FIG. 12).

Firefly luciferase = Firefly luciferase (Photinus pyralis, UniProt P08659); details: EDTA in lysis buffer, 30 min; FIG. 12
Firefly luciferase, sequence (P08659 whole entry): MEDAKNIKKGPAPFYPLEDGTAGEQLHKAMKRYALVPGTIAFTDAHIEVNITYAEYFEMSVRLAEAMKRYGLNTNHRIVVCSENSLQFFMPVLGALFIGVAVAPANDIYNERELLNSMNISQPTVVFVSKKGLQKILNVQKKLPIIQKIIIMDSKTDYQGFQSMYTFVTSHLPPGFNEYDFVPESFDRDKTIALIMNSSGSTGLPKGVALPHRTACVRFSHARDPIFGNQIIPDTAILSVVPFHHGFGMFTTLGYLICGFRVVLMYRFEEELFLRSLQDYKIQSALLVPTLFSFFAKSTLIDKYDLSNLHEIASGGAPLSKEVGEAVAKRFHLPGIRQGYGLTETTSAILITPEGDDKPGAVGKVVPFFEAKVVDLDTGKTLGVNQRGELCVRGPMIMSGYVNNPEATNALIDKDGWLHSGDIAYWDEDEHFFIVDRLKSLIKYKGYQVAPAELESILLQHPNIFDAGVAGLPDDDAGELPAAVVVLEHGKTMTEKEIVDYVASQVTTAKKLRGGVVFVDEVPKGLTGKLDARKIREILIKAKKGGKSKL
Method: as §1

[3] = system: secreted Gaussia luciferase; experiment: secreted Gaussia luciferase activity in conditioned medium of transfected HeLa cells; format: biochemical; details: salt in assay buffer, 26 uM Cz, pH 8.1; FIG. 1
Method: HeLa cells were transiently transfected with a plasmid expressing native, secreted Gaussia luciferase and 24 hrs later the conditioned medium was collected. Wells of a 96-well plate were loaded with 20 ul of conditioned medium and assayed for luciferase activity by injecting 60 ul of an assay buffer comprising 26 uM Cz; pH 8.1 plus the salt as indicated in FIG. 1. Results were expressed as a % of the light units obtained in the absence of salt (FIG. 1).

[4] = system: non-secreted Gaussia luciferase; experiment: non-secreted Gaussia luciferase activity in HeLa cell lysates; format: biochemical; details: 50-100 mM urea in lysis buffer, glutathione in both buffers; FIG. 24

O=C(O)CN(CC(=O)O)C1CCCCC1N(CC(=O)O)CC(=O)O (stereo not drawn) [CDTA]
signal intensity [1]: concentration-dependent beneficial effect on signal intensity

C[C@H](CCC(=O)NCCC[N+](C)(C)CCCS(=O)(=O)[O-])[C@H]1CC[C@H]2[C@@H]3[C@H](O)C[C@@H]4C[C@H](O)CC[C@]4(C)[C@H]3C[C@H](O)[C@]12C [CHAPS]
signal intensity with detergent in lysis buffer [2]: appeared not to lyse the cells at 0.1% | light units (% of those obtained using 0.1% NP40) [2]: insufficient to lyse the cells | light units (% of those obtained using 0.1% NP40) [1]: insufficient to lyse the cells; also recorded: highest activity for non-secreted Metridia luciferase

CCCCCCCCCCCCCCCC[N+](C)(C)C.[Br-] [CTAB]
effect of cationic detergent on signal intensity ([2]; data not shown, luciferase not specified, stated under Example 15): strong inhibitory effect on signal intensity

C[C@H](CCC(=O)[O-])[C@H]1CC[C@H]2[C@@H]3CC[C@@H]4C[C@H](O)CC[C@]4(C)[C@H]3C[C@H](O)[C@]12C.[Na+] [DOC]
signal intensity with detergent in lysis buffer [2]: do not perform well | light units (% of those obtained using 0.1% NP40) [2]: concentration-dependent inhibition on signal intensity. This effect was most evident | light units (% of those obtained using 0.1% NP40) [1]: concentration-dependent inhibition on signal intensity. This effect was most evident

O=C(O)CN(CCN(CC(=O)O)CC(=O)O)CC(=O)O [EDTA]
signal intensity [2]: concentration-dependent beneficial effect on signal intensity | signal intensity and stability of signal over time in lysis buffer ([2]; lysis buffer with 150 mM NaBr and varied EDTA, 30 or 120 min, FIGS. 8A, 8B): benefit of higher amounts of EDTA in terms of both signal intensity and the stability of the luciferase signal over time in lysis buffer | stability of luciferase activity between 20 and 90 min after onset of cell lysis [2]: far more stable (and therefore more desirable) level of luciferase activity | light units (% of those obtained in the absence of EDTA) (Renilla luciferase): does not provide the same beneficial effect on signal intensity | light units (% of those obtained in the absence of EDTA) (Firefly luciferase): clearly decreases the activity of Firefly luciferase | signal intensity [1]: concentration-dependent beneficial effect on signal intensity | increase in activity between 30 and 120 min lysis [1]: performed considerably better

O=C(O)CN(CCOCCOCCN(CC(=O)O)CC(=O)O)CC(=O)O [EGTA]
signal intensity [2]: concentration-dependent beneficial effect on signal intensity | signal intensity [1]: concentration-dependent beneficial effect on signal intensity

[Br-].[Na+] [NaBr, sodium bromide]
luciferase activity (RLU) ([2]; NaBr in lysis buffer or assay buffer, final 75 mM, FIG. 2): enhances activity of non-secreted Gaussia luciferase, especially when included in lysis buffer | stability of luciferase activity between 20 and 90 min after onset of cell lysis [2]: far more stable (and therefore more desirable) level of luciferase activity | light output (% of light units obtained in the absence of salt) [2]: superior enhancement to NaCl | increase in activity between 30 and 120 min lysis [1]: performed better than NaCl | light output (% of light units obtained in the absence of salt) ([1]; salt in lysis buffer, assayed 30 min after lysis buffer, FIG. 4): superior enhancement to NaCl | light output (% of light units obtained in the absence of salt) [3]: higher than with either NaCl or no salt

[Cl-].[Na+] [NaCl]
light output (% of light units obtained in the absence of salt) [2]: increased light output compared to no salt | increase in activity between 30 and 120 min lysis [1]: more than 1200%

CCCCCCCCCCCCOS(=O)(=O)[O-].[Na+] [SDS]
signal intensity with detergent in lysis buffer [2]: do not perform well | light units (% of those obtained using 0.1% NP40) [2]: blocks enzymatic activity; also recorded: concentration-dependent inhibition on signal intensity. This effect was most evident | light units (% of those obtained using 0.1% NP40) [1]: blocks enzymatic activity; also recorded: concentration-dependent inhibition on signal intensity. This effect was most evident

N[C@@H](CCC(=O)N[C@@H](CS)C(=O)NCC(=O)O)C(=O)O [reduced glutathione]
rate at which luciferase acquires maximum activity during cell lysis; signal ([2]; total glutathione and reduced:oxidized ratio varied, 20 or 60 min, FIG. 21): somewhat reduced signal was seen at 60 minutes

NC(N)=O [urea]
increase in signal between 15 and 60 min lysis [4]: increase was less pronounced

NP40
effect of % NP40 in lysis buffer on signal strength ([2]; FIGS. 16A, 16B): signal strength declined with increasing amounts of detergent | signal intensity with detergent in lysis buffer [2]: highest signal intensity | light units (% of those obtained using 0.1% NP40) [2]: highest signal intensity | light units (% of those obtained using 0.1% NP40) [1]: highest signal intensity

Triton X100
light units (% of those obtained using 0.1% NP40) [2]: highest signal intensity | light units (% of those obtained using 0.1% NP40) [1]: highest signal intensity
